Measured values: patent publication US20230099344A1, “COMPOUNDS AND METHODS FOR THE TARGETED DEGRADATION OF IRAK-4” (Arvinas Operations, Inc., priority 2021, published 2023)

Target: T1, IRAK-4 (Homo sapiens, UniProt Q9NWZ3)
T1 sequence (Q9NWZ3 1-460): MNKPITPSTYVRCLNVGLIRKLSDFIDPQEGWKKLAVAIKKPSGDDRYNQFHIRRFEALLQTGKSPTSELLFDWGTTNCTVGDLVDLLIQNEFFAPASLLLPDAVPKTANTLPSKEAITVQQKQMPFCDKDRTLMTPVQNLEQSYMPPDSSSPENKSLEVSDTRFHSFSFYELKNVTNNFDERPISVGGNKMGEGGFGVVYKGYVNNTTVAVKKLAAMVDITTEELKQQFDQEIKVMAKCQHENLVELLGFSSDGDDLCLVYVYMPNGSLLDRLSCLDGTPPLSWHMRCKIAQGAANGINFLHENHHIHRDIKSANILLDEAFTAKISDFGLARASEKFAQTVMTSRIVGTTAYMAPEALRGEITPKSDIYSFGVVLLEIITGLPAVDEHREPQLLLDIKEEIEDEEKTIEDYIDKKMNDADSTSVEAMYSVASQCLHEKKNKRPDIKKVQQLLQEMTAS
Assay: IRAK-4 ELISA, PBMC degradation
Type: cell-based
Design: endogenous in cells; host or cells: PBMC
Conditions: treated overnight
Protocol: Reagents: Human IRAK-4 Matched Antibody Pair Kit (Abcam ab218182) and ELISA Accessory Pack (Abcam ab210905).
Cell Treatment and Lysis:
1. OCI-Ly10: 200,000 cells are seeded at 1×10^6/ml in 96-well U-bottom plates 200 ul per well, treated with compound the same day. Incubate overnight. 2. PBMC: 800,000 cells are seeded at 2×10^6/ml in 96-well U-bottom deep-well plates, 400 ul per well, treated with compound the same day. Incubate overnight.
Cell lysate is collected and analyzed by ELISA for IRAK-4 levels.

| Compound | DC50 [nM] | Dmax [%] | PBMC DC90 | PBMC Dmax |
| --- | --- | --- | --- | --- |
| CC(C)Oc1cc2nn(C3CCN(CC4(F)CN(c5cc6c(cc5F)C(=O)N(C5CCC(=O)NC5=O)C6=O)C4)CC3)cc2cc1NC(=O)c1cnn2cccnc12 (stereo not drawn) [Example 189] | < 1 | ≥ 90 | A (A represents a DC90 value <10.0 nM) | – |
| CC(C)Oc1cc2nn(C3CCN(CC4(F)CN(c5ccc6c(c5)C(=O)N(C5CCC(=O)NC5=O)C6=O)C4)CC3)cc2cc1NC(=O)c1cnn2ccc(N3CCOCC3)nc12 (stereo not drawn) [Example 190] | ≥ 10 | ≥ 90 | D (D represents a DC90 value ≥50 nM) | – |
| CC(C)Oc1cc2nn(C3CCN(CC4(F)CN(c5ccc6c(c5)C(=O)N(C5CCC(=O)NC5=O)C6=O)C4)CC3)cc2cc1NC(=O)c1cnn2ccc(N3C[C@H]4C[C@@H]3CO4)nc12 (stereo partly drawn) [Example 191] | 5 to 10 | 80 to 90 | D (D represents a DC90 value ≥50 nM) | – |
| CC(C)Oc1cc2nn(C3CN(CC4(F)CCN(c5ccc6c(c5)C(=O)N(C5CCC(=O)NC5=O)C6=O)CC4)C3)cc2cc1NC(=O)c1cnn2cccnc12 (stereo not drawn) [Example 194] | 1 to 5 | ≥ 90 | C (C represents a DC90 value ≥25.0 nM and <50 nM) | – |
| CCOc1cc2nn(C3CCN(CC4(F)CN(c5ccc6c(c5)C(=O)N(C5CCC(=O)NC5=O)C6=O)C4)CC3)cc2cc1NC(=O)c1cnn2cccnc12 (stereo not drawn) [Example 195] | 1 to 5 | ≥ 90 | B (B represents a DC90 value ≥10.0 nM and <25.0 nM) | – |
| O=C1CCC(N2C(=O)c3ccc(N4CC(F)(CN5CCC(n6cc7cc(NC(=O)c8cnn9cccnc89)c(OC8CCC8)cc7n6)CC5)C4)cc3C2=O)C(=O)N1 (stereo not drawn) [Example 196] | 1 to 5 | 80 to 90 | B (B represents a DC90 value ≥10.0 nM and <25.0 nM) | – |
| O=C1CCC(N2C(=O)c3ccc(N4CC(F)(CN5CCC(n6cc7cc(NC(=O)c8cnn9cccnc89)c(OC8CCCC8)cc7n6)CC5)C4)cc3C2=O)C(=O)N1 (stereo not drawn) [Example 198] | 5 to 10 | ≥ 90 | B (B represents a DC90 value ≥10.0 nM and <25.0 nM) | – |
| O=C1CCC(N2C(=O)c3ccc(N4CC(F)(CN5CCC(n6cc7cc(NC(=O)c8cnn9cccnc89)c(C8CC8)cc7n6)CC5)C4)cc3C2=O)C(=O)N1 (stereo not drawn) [Example 199] | 1 to 5 | ≥ 90 | B (B represents a DC90 value ≥10.0 nM and <25.0 nM) | – |
| O=C1CCC(N2C(=O)c3ccc(N4CC(F)(CN5CCC(n6cc7cc(NC(=O)c8cnn9cccnc89)c(OC8CC8)cc7n6)CC5)C4)cc3C2=O)C(=O)N1 (stereo not drawn) [Example 200] | 1 to 5 | ≥ 90 | A (A represents a DC90 value <10.0 nM) | – |
| O=C1CCC(N2Cc3cc(N4CC(F)(CN5CCC(n6cc7cc(NC(=O)c8cnn9cccnc89)c(OC8CCC8)cc7n6)CC5)C4)ccc3C2=O)C(=O)N1 (stereo not drawn) [Example 214] | < 1 | 70 to 80 | A (A represents a DC90 value <10.0 nM) | – |
| O=C1CCC(N2C(=O)c3ccc(N4CC(F)(CN5CCC(N6Cc7cc(NC(=O)c8cnn9cccnc89)c(OC8CCC8)cc7C6=O)CC5)C4)cc3C2=O)C(=O)N1 (stereo not drawn) [Example 215] | 1 to 5 | 70 to 80 | A (A represents a DC90 value <10.0 nM) | – |
| CC(C)Oc1nc2nn(C3CCN(CC4(F)CN(c5ccc6c(c5)C(=O)N(C5CCC(=O)NC5=O)C6=O)C4)CC3)cc2cc1NC(=O)c1cnn2cccnc12 (stereo not drawn) [Example 219] | 5 to 10 | 80 to 90 | C (C represents a DC90 value ≥25.0 nM and <50 nM) | – |
| CC(C)(C)Oc1nc2nn(C3CCN(CC4(F)CN(c5ccc6c(c5)C(=O)N(C5CCC(=O)NC5=O)C6=O)C4)CC3)cc2cc1NC(=O)c1cnn2cccnc12 (stereo not drawn) [Example 220] | 1 to 5 | 80 to 90 | C (C represents a DC90 value ≥25.0 nM and <50 nM) | – |
| O=C1CCC(N2C(=O)c3cc(F)c(N4CC(CN5CCC(n6cc7cc(NC(=O)c8cnn9cccnc89)c(OCC8CC8)cc7n6)CC5)C4)cc3C2=O)C(=O)N1 (stereo not drawn) [Example 221] | 1 to 5 | < 70 | B (B represents a DC90 value ≥10.0 nM and <25.0 nM) | – |
| C[C@@H](Oc1cc2nn(C3CCN(CC4(F)CN(c5ccc6c(c5)C(=O)N(C5CCC(=O)NC5=O)C6=O)C4)CC3)cc2cc1NC(=O)c1cnn2cccnc12)C1CC1 (stereo partly drawn) [Example 223] | 1 to 5 | 70 to 80 | C (C represents a DC90 value ≥25.0 nM and <50 nM) | – |
| O=C1CCC(N2C(=O)c3ccc(N4CC[C@H](N5CCC(n6cc7cc(NC(=O)c8cnn9cccnc89)c(OCC8CC8)cc7n6)CC5)C4)cc3C2=O)C(=O)N1 (stereo partly drawn) [Example 225] | 1 to 5 | 80 to 90 | B (B represents a DC90 value ≥10.0 nM and <25.0 nM) | – |
| CC1(N2CCC(n3cc4cc(NC(=O)c5cnn6cccnc56)c(OCC5CC5)cc4n3)CC2)CN(c2ccc3c(c2)C(=O)N(C2CCC(=O)NC2=O)C3=O)C1 (stereo not drawn) [Example 228] | 1 to 5 | 80 to 90 | C (C represents a DC90 value ≥25.0 nM and <50 nM) | – |
| O=C1CCC(N2C(=O)c3cc(F)c(N4CC(F)(CN5CCC(n6cc7cc(NC(=O)c8cnn9cccnc89)c(OCC8CC8)cc7n6)CC5)C4)cc3C2=O)C(=O)N1 (stereo not drawn) [Example 229] | 5 to 10 | 80 to 90 | B (B represents a DC90 value ≥10.0 nM and <25.0 nM) | – |
| O=C1CCC(N2C(=O)c3ccc(N4CC(F)(CN5CCC(n6cc7cc(NC(=O)c8cnn9cccnc89)c(OCC(F)F)cc7n6)CC5)C4)cc3C2=O)C(=O)N1 (stereo not drawn) [Example 232] | 1 to 5 | – | C (C represents a DC90 value ≥25.0 nM and <50 nM) | B (B represents a Dmax value ≥80 and <90) |
| O=C1CCC(N2C(=O)c3ccc(N4CC(F)(CN5CCC(n6cc7cc(NC(=O)c8cnn9ccc(N%10CCOCC%10)nc89)c(OCC8CC8)cc7n6)CC5)C4)cc3C2=O)C(=O)N1 (stereo not drawn) [Example 233] | 5 to 10 | 80 to 90 | C (C represents a DC90 value ≥25.0 nM and <50 nM) | – |
| O=C1CCC(N2C(=O)c3ccc(N4CC(CN5CCC(n6cc7cc(NC(=O)c8cnn9cccnc89)c(OCC(F)F)cc7n6)CC5)C4)cc3C2=O)C(=O)N1 (stereo not drawn) [Example 235] | < 1 | ≥ 90 | A (A represents a DC90 value <10.0 nM) | – |
| COc1cc2nn(C3CCN(CC4(F)CN(c5ccc6c(c5)C(=O)N(C5CCC(=O)NC5=O)C6=O)C4)CC3)cc2cc1NC(=O)c1cnn2ccc(N3CCOCC3)nc12 (stereo not drawn) [Example 236] | < 1 | 70 to 80 | A (A represents a DC90 value <10.0 nM) | – |
| COc1cc2nn(C3CCN(CC4(F)CN(c5ccc6c(c5)C(=O)N(C5CCC(=O)NC5=O)C6=O)C4)CC3)cc2cc1NC(=O)c1cnn2ccc(C3C[C@H]4C[C@@H]3CO4)nc12 (stereo partly drawn) [Example 238] | 1 to 5 | 70 to 80 | B (B represents a DC90 value ≥10.0 nM and <25.0 nM) | – |

Further lines, with some results ahead:

| DC50 [nM] | Dmax [%] | PBMC DC90 | Compound | PBMC Dmax |
| --- | --- | --- | --- | --- |
| 1 to 5 | 80 to 90 | A (A represents a DC90 value <10.0 nM) | CC(C)Oc1cc2nn(C3CCN(CC4(C)CN(c5ccc6c(c5)C(=O)N(C5CCC(=O)NC5=O)C6=O)C4)CC3)cc2cc1NC(=O)c1cnn2cccnc12 (stereo not drawn) [Example 192] | – |
| < 1 | 80 to 90 | A (A represents a DC90 value <10.0 nM) | O=C1CCC(N2C(=O)c3ccc(N4CC(CN5CCC(n6cc7cc(NC(=O)c8cnn9cccnc89)c(OC8CCC8)cc7n6)CC5)C4)cc3C2=O)C(=O)N1 (stereo not drawn) [Example 197] | – |
| < 1 | – | A (A represents a DC90 value <10.0 nM) | O=C1CCC(N2Cc3cc(N4CC(F)(CN5CCC(n6cc7cc(NC(=O)c8cnn9cccnc89)c(OC8CCC8)cc7n6)CC5)C4)ccc3C2=O)C(=O)N1 (stereo not drawn) [Example 216] | B (B represents a Dmax value ≥80 and <90) |
| < 1 | 80 to 90 | A (A represents a DC90 value <10.0 nM) | COc1cc(N2CC(F)(CN3CCC(n4cc5cc(NC(=O)c6cnn7cccnc67)c(OC(C)C)cc5n4)CC3)C2)cc2c1C(=O)N(C1CCC(=O)NC1=O)C2=O (stereo not drawn) [Example 217] | – |
| 1 to 5 | 80 to 90 | A (A represents a DC90 value <10.0 nM) | O=C1CCC(N2C(=O)c3ccc(N4CC5(CCC(N6CCC(n7cc8cc(NC(=O)c9cnn%10cccnc9%10)c(OCC9CC9)cc8n7)CC6)CC5)C4)cc3C2=O)C(=O)N1 (stereo not drawn) [Example 227] | – |
| 1 to 5 | ≥ 90 | D (D represents a DC90 value ≥50 nM) | CC(C)(C1CCN(c2ccc3c(c2)C(=O)N(C2CCC(=O)NC2=O)C3=O)CC1)N1CCC(n2cc3cc(NC(=O)c4cnn5cccnc45)c(OCC4CC4)cc3n2)CC1 (stereo not drawn) [Example 230] | – |
| < 1 | 80 to 90 | A (A represents a DC90 value <10.0 nM) | COC1(CN2CCC(n3cc4cc(NC(=O)c5cnn6cccnc56)c(OCC5CC5)cc4n3)CC2)CN(c2ccc3c(c2)C(=O)N(C2CCC(=O)NC2=O)C3=O)C1 (stereo not drawn) [Example 234] | – |
| 1 to 5 | 70 to 80 | D (D represents a DC90 value ≥50 nM) | CNc1ccn2ncc(C(=O)Nc3cc4cn(C5CCN(CC6(F)CN(c7ccc8c(c7)C(=O)N(C7CCC(=O)NC7=O)C8=O)C6)CC5)nc4cc3OCC3CC3)c2n1 (stereo not drawn) [Example 237] | – |
